How the values were obtained:
AVEFA [1] = assay: Post-emergence herbicidal action against AVEFA; format: in vivo, Avena fatua; details: 20 g/ha, visual assessment about 3 weeks after treatment, 100% = plants have died, 0% = like control plants
In short: (§1)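 Visual % rating (0% = as untreated, 100% = dead) ~3 wk after spraying one-leaf-stage plants grown in sandy loam; WP/EC in water at 600–800 l/ha, 0.2% wetting agent.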

LOLRI = assay: Pre-emergence herbicidal action against LOLRI; format: in vivo, Lolium rigidum; details: 80 g/ha
In short: (§2)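 Sandy loam pots, seeds covered with soil, then surface-treated with WP or EC formulations at 600–800 l/ha water plus 0.2% wetting agent. Greenhouse, 3 weeks. Percent damage vs untreated controls.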

SETVI [2] = assay: Post-emergence herbicidal action against SETVI; format: in vivo, Setaria viridis
In short: as §1

ALOMY [3] = assay: Post-emergence herbicidal action against ALOMY; format: in vivo, Alopecurus myosuroides; details: dosage 20 g/ha, visual assessment about 3 weeks after treatment vs untreated controls
In short: as §1

MATIN [4] = assay: Pre-emergence herbicidal action against MATIN; format: in vivo, Matricaria inodora
In short: as §2

MATIN [5] = assay: Post-emergence herbicidal action against MATIN; format: in vivo, Matricaria inodora; details: dosage 20 g/ha
In short: as §1

VIOTR [6] = assay: Post-emergence herbicidal action against VIOTR; format: in vivo, Viola tricolor; details: 20 g/ha
In short: as §1

VIOTR [7] = assay: Pre-emergence herbicidal action against VIOTR; format: in vivo, Viola tricolor; details: dosage 80 g/ha
In short: as §2

AMARE [8] = assay: Pre-emergence herbicidal action against AMARE; format: in vivo, Amaranthus retroflexus
In short: as §2

ABUTH [9] = assay: Pre-emergence herbicidal action against ABUTH; format: in vivo, Abutilon theophrasti
In short: as §2

ABUTH [10] = assay: Post-emergence herbicidal action against ABUTH; format: in vivo, Abutilon theophrasti; details: visual assessment about 3 weeks after treatment vs untreated controls
In short: as §1

PHBPU [11] = assay: Pre-emergence herbicidal action against PHBPU; format: in vivo, Pharbitis purpurea; details: dosage 80 g/ha
In short: as §2

PHBPU [12] = assay: Post-emergence herbicidal action against PHBPU; format: in vivo, Pharbitis purpurea; details: dosage 20 g/ha
In short: as §1

SETVI [13] = assay: Pre-emergence herbicidal action against SETVI; format: in vivo, Setaria viridis; details: dosage 80 g/ha
In short: as §2

ECHCG [14] = assay: Pre-emergence herbicidal action against ECHCG; format: in vivo, Echinochloa crus-galli; details: 80 g/ha
In short: as §2

AMARE [15] = assay: Post-emergence herbicidal action against AMARE; format: in vivo, Amaranthus retroflexus; details: 20 g/ha, visual assessment about 3 weeks after treatment, 100% = plants have died, 0% = like control plants
In short: as §1

VERPE [16] = assay: Pre-emergence herbicidal action against VERPE; format: in vivo, Veronica persica
In short: as §2

ECHCG [17] = assay: Post-emergence herbicidal action against ECHCG; format: in vivo, Echinochloa crus-galli
In short: as §1

VERPE [18] = assay: Post-emergence herbicidal action against VERPE; format: in vivo, Veronica persica; details: 20 g/ha
In short: as §1

ALOMY [19] = assay: Pre-emergence herbicidal action against ALOMY; format: in vivo, Alopecurus myosuroides; details: pre-emergence
In short: as §2

AVEFA [20] = assay: Pre-emergence herbicidal action against AVEFA; format: in vivo, Avena fatua; details: Avena fatua, 504 h; 80 g/ha, pre-emergence
In short: as §2

[21] = 80 g/ha, scored visually after 3 weeks vs untreated controls (100% = plants have died, 0% = like control plants)

CSc1c(C(=O)Nc2nnnn2C)ccc(C(F)F)c1C(=O)NCC(F)F [Example 1-92]
Post-emergence action at 20 g/ha against AVEFA in % (AVEFA [1]): 90%
Pre-emergence action against LOLRI in % (LOLRI): 90%
Post-emergence action against SETVI in % (SETVI [2]; dosage 5 g/ha): 90%
Post-emergence action against SETVI in % (SETVI [2]; dosage 20 g/ha): 100%
Post-emergence action against ALOMY in % (ALOMY [3]): 90%
Pre-emergence action against MATIN in % (MATIN [4]; dosage 20 g/ha): 100%
Pre-emergence action against MATIN in % (MATIN [4]; dosage 80 g/ha): 100%
Post-emergence action against MATIN in % (MATIN [5]): 80%
Post-emergence action against VIOTR in % (VIOTR [6]): 100%
Pre-emergence action against VIOTR in % (VIOTR [7]): 100%
Pre-emergence action against AMARE in % (AMARE [8]; 20 g/ha, scored visually after 3 weeks vs untreated controls, 100% = plants have died, 0% = like control plants): 100%
Pre-emergence action against AMARE in % (AMARE [8]; [21]): 100%
Pre-emergence action against ABUTH (herbicidal activity) (ABUTH [9]; [21]): 100%
Pre-emergence action against ABUTH (herbicidal activity in percent) (ABUTH [9]; dosage 20 g/ha, scored visually after 3 weeks vs untreated controls, 100% = plants have died, 0% = like control plants): 100%
Post-emergence action against ABUTH in % (ABUTH [10]; dosage 5 g/ha): 90%
Post-emergence action against ABUTH in % (ABUTH [10]; dosage 20 g/ha): 100%
Pre-emergence action against PHBPU in % (PHBPU [11]): 90%
Post-emergence action against PHBPU in % (PHBPU [12]): 90%
Pre-emergence action against SETVI in % (SETVI [13]): 100%
Pre-emergence action against ECHCG in % (ECHCG [14]): 100%
Post-emergence action at 20 g/ha against AMARE in % (AMARE [15]): 100%
Pre-emergence action against VERPE in % (VERPE [16]; dosage 80 g/ha): 100%
Post-emergence action against ECHCG in % (ECHCG [17]; dosage 5 g/ha): 100%
Post-emergence action against ECHCG in % (ECHCG [17]; dosage 20 g/ha): 100%
Post-emergence action against VERPE in % (VERPE [18]): 90%
Pre-emergence action against ALOMY (herbicidal activity) (ALOMY [19]; [21]): 90%

Cn1nnnc1NC(=O)c1ccc(Br)c(C(=O)NC2CC2)c1Br [Example 1-344]
pest or weed control at 20 g/ha (AVEFA [1]; Avena fatua, 504 h): 80%
pest or weed control at 80 g/ha (LOLRI; Lolium rigidum, 504 h): 90%
pest or weed control at 5 g/ha (SETVI [2]; Setaria viridis, 504 h, dosage 5 g/ha): 80%
pest or weed control at 20 g/ha (SETVI [2]; Setaria viridis, 504 h, dosage 20 g/ha): 90%
pest or weed control at 20 g/ha (ALOMY [3]; Alopecurus myosuroides, 504 h): 100%
pest or weed control at 20 g/ha (MATIN [4]; Tripleurospermum inodorum, 504 h, dosage 20 g/ha): 90%
pest or weed control at 80 g/ha (MATIN [4]; Tripleurospermum inodorum, 504 h, dosage 80 g/ha): 100%
pest or weed control at 80 g/ha (VIOTR [7]; Viola tricolor, 504 h): 100%
pest or weed control at 20 g/ha (AMARE [8]; Amaranthus retroflexus, 504 h, 20 g/ha, scored visually after 3 weeks vs untreated controls, 100% = plants have died, 0% = like control plants): 100%
pest or weed control at 80 g/ha (AMARE [8]; Amaranthus retroflexus, 504 h, 80 g/ha, scored visually after 3 weeks vs untreated controls, 100% = plants have died, 0% = like control plants): 100%
pest or weed control at 80 g/ha (ABUTH [9]; Abutilon theophrasti, 504 h, 80 g/ha, scored visually after 3 weeks vs untreated controls (100% = plants have died, 0% = like control plants)): 100%
pest or weed control at 20 g/ha (ABUTH [9]; Abutilon theophrasti, 504 h, dosage 20 g/ha, scored visually after 3 weeks vs untreated controls, 100% = plants have died, 0% = like control plants, read-out: Pre-emergence action against ABUTH (herbicidal activity in percent)): 90%
pest or weed control at 20 g/ha (ABUTH [10]; Abutilon theophrasti, 504 h, dosage 20 g/ha): 90%
pest or weed control at 80 g/ha (SETVI [13]; Setaria viridis, 504 h): 100%
pest or weed control at 80 g/ha (AVEFA [20]): 90%
pest or weed control at 80 g/ha (ECHCG [14]; Echinochloa crus-galli, 504 h): 90%
pest or weed control at 20 g/ha (AMARE [15]; Amaranthus retroflexus, 504 h): 100%
pest or weed control at 20 g/ha (VERPE [16]; Veronica persica, 504 h, dosage 20 g/ha): 80%
pest or weed control at 80 g/ha (VERPE [16]; Veronica persica, 504 h, dosage 80 g/ha): 90%
pest or weed control at 20 g/ha (VERPE [18]; Veronica persica, 504 h): 90%
pest or weed control at 80 g/ha (ALOMY [19]; Alopecurus myosuroides, 504 h, 80 g/ha, scored visually after 3 weeks vs untreated controls (100% = plants have died, 0% = like control plants)): 100%
pest or weed control at 20 g/ha (ALOMY [19]; Alopecurus myosuroides, 504 h, 20 g/ha, scored visually after 3 weeks, 100% = plants have died, 0% = like control plants): 90%

— patent US12655116B2, “Substituted isophthalic acid diamides” (Bayer Aktiengesellschaft, priority 2020, dated 2026)
